Results on one molecule are retold here after patent US20090137631A1, “METHODS AND PHARMACEUTICAL COMPOSITIONS FOR REGULATION OF G- AND/OR GC-RICH NUCLEIC ACID EXPRESSION” (NATIONAL YANG-MING UNIVERSITY, priority 2007, published 2009).

Values joined by “and” are separate entries in the source; they are usually repeats but may differ in a detail not shown here. Identical values can stand only once.

For data set [1], the system named is bFGF proteins in U-87 MG cells. The data set is described as follows: Immunofluorescence staining of bFGF protein (FACS and fluorescence microscopy). The data set is classed as cell-based, human. As for the experimental part: U-87 MG cells were treated with indicated concentrations (0, 0.1, 1 and 10 μg/ml) of free-form and liposomal thalidomide and fixed in 4% (w/v) paraformaldehyde (Sigma-Aldrich) in PBS for 15 min, permeabilized with 0.01% (v/v) Triton X-100 (Sigma-Aldrich) or 0.5% (v/v) saponin (Sigma-Aldrich) in PBS for 30 min at room temperature. The cells were subsequently treated with 0.5 μg polyclonal rabbit anti human bFGF antibody (ab16828, Abeam) for 30 min at room temperature, washed, followed by staining with FITC-conjugated goat anti-rabbit IgG (Jackson ImmunoResearch) at 1:200 dilution for 30 min. Hoechst 33258 (Sigma-Aldrich) was used as a nuclear marker. The cells were then washed and visualized using a fluorescence microscope (Olympus Optical Co, Tokyo, Japan) or analyzed using the BD FACSCalibur™ flow cytometer (BD Biosciences). The relative expression level of cellular bFGFs was calculated by normalized the mean fluorescence value of each treatment with the empty liposome treated control. […] Because HMW bFGFs were the major isoforms localized in nucleus (Renko et al., 1990), a decrease of its signal intensity in this compartment might reflect a reduced expression of HMW bFGFs.

Data set [2] deals with U-87 MG cells. The data set is described as follows: Resazurin cell proliferation assay. It counts as cell-based, human. The settings on record: 0˜100 μg/ml, 72 hr (FIG. 3A).
Procedure: Cell proliferation ability was assayed using a resazurin assay (Nociari et al., 1998), in which resazurin dye was used as a redox indicator to detect cell growth, not cell death. Resazurin sodium (Sigma-Aldrich) stock solution in PBS (5 mM) was prepared, and the working solution (50 μM) was diluted from the stock using DMEM (Gibco) without FBS. Approximately 3000 U-87 MG cells were seeded onto 96-well plates (Costar, Corning), allowed to attach at 37° C. in a humidified incubator of 5% CO2-95% air for 16 hr, and treated with indicated concentrations (0, 0.1, 1, 10, and 100 μg/ml) of free-form and liposomal thalidomide for 72 h. For resazurin assay, the culture medium was removed and freshly diluted resazurin working solution (100 μl) was added into each well. Following incubation at 37° C. in a humidified incubator of 5% CO2-95% air for 2 hr, the resazurin dye was reduced by the activity of living cells, and the reduced form of resazurin was determined at a fluorescence excitation wavelength 530 nm and emission wavelength 590 nm by a Victor 2 1420 Multilable Counter (Wallac, PerkinElmer).
The test system of data set [3] is U-87 MG cells. The data set is described as follows: Soft agar colony formation assay (anchorage-independent growth). The conditions noted are these: 2 weeks; for colony-forming ability in soft agar (anchorage-independent growth): 0.1˜10 μg/ml. It counts as cell-based, human. The procedure: Because bFGF was known to promote cell transformation (Vagner et al., 1996), the soft agar colony formation assay (Murphy et al., 1992) and hanging drop method (Kelm et al., 2003) were used to assess the effects of thalidomide on anchorage-independent and three-dimensional growth abilities of U-87 MG cells, respectively. The colony forming assay was performed according to a two-layer agar technique (Murphy et al., 1992). The bottom layer consisted of 0.3 ml of DMEM with 10% FBS and 0.5% (w/v) agarose (Amresco). Approximately 1000 U-87 MG cells were added to the same medium containing 10% FBS and 0.3%) (w/v) low-melting agarose (Amresco) plus indicated concentrations (0, 0.1, 1 and 10 μg/ml) of free-form thalidomide, and plated in 24-well plates (Costar, Corning) onto the base layer. […] Colony-forming ability (size, >0.1 mm) was measured.

In data set [4] the test system is U-87 MG cells. The data set is described as follows: Hanging drop spheroid aggregation assay. The data set is classed as cell-based, human. The settings on record: 0.1˜10 μg/ml, 48 hr, dose-dependently. As for the experimental part: For hanging drop assay, approximately 1000 U-87 MG cells per 20 μl of cell suspension in culture medium (DMEM with 10% FBS) with indicated concentrations (0, 0.1, 1 and 10 μg/ml) of free-form thalidomide were spotted on the cover of a 6-cm culture dish (Falcon). The cover was returned to its top position with the cell suspension droplet facing down toward the bottom dish, which contained 5 ml of DMEM for maintenance of moisture during incubation. […] Each spheroid was photographed by using phase-contrast microscopy. The aggregation percentage was assayed by calculating the aggregation ability from 20 spheroids for each assay condition. The cell aggregates formed in spheroid culture was abolished by free-form thalidomide dose-dependently (FIG. 3D and FIG. 3E).

Another data set relates to bFGF promoter. The data set is described as follows: bFGF promoter-controlled EGFP reporter expression in U87-bFGF-EGFP cells. The data set is classed as cell-based, human. The settings on record: 0.1˜10 μg/ml, 3 hr, dose-dependent.
Another data set deals with LMW-IRES. The data set is described as follows: Bicistronic luciferase IRES activity, U87-LMW-IRES cells. The data set is classed as cell-based, human. The settings on record: 0.1˜10 μg/ml, 12 hr. From the text: (§1) To examine whether the G- and/or GC-rich region in IRES of N-terminal extension of bFGF transcript could also be regulated by thalidomide, plasmids pHMW-IRES and pLMW-IRES (FIG. 5A) were designed using bicistronic vector as previous described (Creancier et al., 2000). There were two luciferase genes, Renilla luciferase (LucR) and firefly luciferase (LucF), which were controlled by the cytomegalovirus (CMV) promoter and separated by the LMW-IRES fragment (SEQ ID NO. 12) and HMW-IRES fragment (SEQ ID NO. 15) in plasmids pLMW-IRES or pHMW-IRES (FIG. 5A), respectively. […] Approximately 2×10^5 U-87 MG cells were plated in 6-well plates (Falcon) 24 hr before transfection and exposed to 3 μg total DNA (plasmid pLMW-IRES or pHMW-IRES) and 3 μl Lipofectamine 2000 (Invitrogen, Carlsbad, USA) in DMEM without FBS according to the manufacture's brochure of Lipofectamine 2000. […]
(§2) U87-LMW-IRES and U87-HMW-IRES cells were treated with indicated concentrations (0, 0.1, 1 and 10 μg/ml) of liposomal thalidomide for 12 hr, and the two luciferase activities were measured in each cell extracts by scintillation counting in a Victor 2 1420 Multilabel Counter (Wallac, PerkinElmer). The IRES activity was determined by calculating the LucR/LucF ratios (the ratio of renilla to firefly luciferase activity) normalized by the untreated control.

The subject of a further data set is HMW-IRES. The data set is described as follows: Bicistronic luciferase IRES activity, U87-HMW-IRES cells. The data set is classed as cell-based, human. The settings on record: 0.1˜10 μg/ml, 12 hr.
Text: as §1, §2

The test system of a further data set is G-rich bFGF DNA fragment. The data set is described as follows: UV-VIS absorbance of thalidomide after incubation with bFGF DNA fragments. The data set is classed as binding, human. The conditions noted are these: G-rich fragment (91% GC) versus non-G-rich control fragment (44% GC).
Data set [5] relates to bFGF RNA levels in U-87 MG cells.
Procedure: The U-87 MG cells were purchased from American Type Culture Collection (ATCC, Rockville, Md.) and maintained in Dulbecco's modified Eagle's medium (DMEM; Gibco) containing 10% heat inactivated fetal bovine serum (FBS; Gibco) and antibiotics, such as penicillin G (Sigma-Aldrich) and streptomycin (Sigma-Aldrich), at 37° C. in a humidified incubator of 5% CO2-95% air. Thalidomide (TYY Biopharm, Taiwan) was dissolved in dimethyl sulfoxide (DMSO; Sigma-Aldrich) first to make a stock solution of 50 mg/ml, and then diluted to various, desired concentrations with medium. The maximum of the final concentration of DMSO in the medium was 0.02%.
Real-time RT-PCR analysis was used to assess the RNA levels of bFGF in U-87 MG cells. After being treated with indicated concentrations (0, 0.1, 1 and 10 μg/ml) of thalidomide for 3 hr and 12 hr, U-87 MG cells were washed twice with ice-cold phosphate buffered saline (PBS) and RNA was extracted by using RNA-Bee™ RNA isolation solvent (Tel-test). Total RNA (5 μg) was used to prepare cDNA by using AMV reverse transcriptase (Promega). The reverse-transcribed cDNA samples were analyzed by real-time PCR using ABI Prism 7700 Sequence Detection System (Applied Biosystems) and the SYBR Green Master Mix kit (Applied Biosystems). […]
Data set [6] concerns HMW and LMW bFGF isoforms in U-87 MG cells. The conditions noted are these: 1 and 10 μg/ml, 12 hr.
Procedure: Immunoblot (or western blot) analysis was therefore performed to analyze the amount of different bFGF isoforms and GAPDH was used as die internal control, which level would not be affected by thalidomide. After being treated with indicated concentrations (0, 0.1, 1 and 10 μg/ml) of free-form and liposomal thalidomide, U-87 MG cell lysate was prepared using lysis buffer (50 mM Tris [hydroxymethyl] aminomethane (Tris; USB), 1% (v/v) TritonX-100 (Sigma-Aldrich), 150 mM sodium chloride (NaCl; J. T. Baker), 1 mM ethylenediaminetetraacetic acid (EDTA; Sigma-Aldrich), 1 mM phenylmethylsulphonyl fluoride (PMSF; Sigma-Aldrich). Cell lysates (2 μg) containing proteins were separated with using 15% polyacrylamide gel electrophoresis and transferred to a polyvinylidene fluoride (PVDF) membrane (PerkinElmer). The membrane was incubated with polyclonal rabbit anti human bFGF antibody (ab16828, Abeam) at 1:200 dilution or anti-GAPDH antibody (ab9482, Abeam) at 1:10000 dilution, which was used as an internal control, followed by horseradish peroxidase-conjugated anti-IgG secondary antibody (Jackson ImmunoResearch) at 1:5000 dilution. The enhanced chemiluminescent (ECL; PerkinElmer) detection method (Amersham) was used for blotting analysis.
In another data set the test system is G-rich hTERT promoter. The conditions noted are these: Drucker et al., 2003; cited from earlier work.
Data set [7] relates to genes with GC-rich promoter. The settings on record: Drucker et al., 2003; cited from earlier work.
The subject of data set [8] is LPS induced TNF-α secretion by monocytes. The settings on record: Sampaio et al., 1991; cited from earlier work.
For data set [9] the following is noted: clinical daily dose 200 to 800 mg, maximum 1200 mg; cited from earlier work.
Data set [10] is described as follows: Stability of thalidomide in culture medium alone (9 hr pre-incubation, then bFGF transcript readout). The conditions noted are these: 0.1˜10 μg/ml, 9 hr at 37° C. in culture medium before 3 hr on cells.
Procedure: In order to test the stability of thalidomide in the culture medium alone, the thalidomide stock solution was diluted with fresh culture medium to 0.1˜10 μg/ml and incubated at 37° C. in a humidified incubator of 5% CO2-95% air for 9 hr before being added to the U-87 MG cells for 3 hr.
[11] abbreviates: listed as free-form thalidomide.

Procedure for G-rich bFGF DNA fragment: The G-rich fragment with 91% GC content and non-G-rich control fragment with 44% GC content were designed from the promoter region of bFGF (FIG. 6A). To examine whether thalidomide could interact preferentially with the G- and/or GC-rich region of bFGF, the ultraviolet-visible (UV-VIS) absorbance of thalidomide was assayed using a Hitachi U2000 Spectrophotometer with the scanning range from 330 to 190 nm. The absorbance of thalidomide would be diminished by bound tightly with the secondary structure of a DNA (Usha et al., 2005).
Procedure for bFGF promoter: To evaluate the effect of thalidomide on the transcription driven by bFGF promoter, pbFGF-EGFP plasmid, containing bFGF promoter to drive the expression of enhanced green fluorescence protein (EGFP), was stably transfected into U-87 MG to get U87-bFGF-EGFP cell. […] Approximately 2×10^5 U-87 MG cells were plated in 6-well plates (Falcon) 24 hr before transfection and exposed to 3 μg total DNA (plasmid pbFGF-EGFP) and 3 μl Lipofectamine 2000 (Invitrogen Corp.) in DMEM without FBS according to the manufacture's brochure of Lipofectamine 2000. After cultured at 37° C. in a humidified incubator of 5% CO2-95% air for 48 hr, cells were trypsinized and passaged into DMEM with 10% FBS (20× dilutions). Stable transfectants (U87-bFGF-EGFP cells) were selected by using geneticin (800 μg/ml; Merck Biosciences) for 1 month.
U87-bFGF-EGFP cells were treated with indicated concentrations (0, 0.1, 1 and 10 μg/ml) of free-form thalidomide for 3 hr. The fluorescence of EGFP was measured by flow cytometry (FACS Calibur, BD Biosciences). […] The RNA levels of EGFP were analyzed by real-time RT-PCR and GAPDH was used as an internal control.

For `O=C1CCC(N2C(=O)c3ccccc3C2=O)C(=O)N1` (racemic) [thalidomide, 2-(2,6-dioxo-3-piperidinyl)-1H-iso-indole-1,3(2H)-dione], the “total level of bFGF proteins” value in data set [1] (FACS, 12 hr (FIG. 2A)) is listed as “down-regulated”. Besides, the “nuclear level of bFGF proteins” value in data set [1] (fluorescence microscopy, 12 hr (FIG. 2B)) is on record as “down-regulated”. For the same molecule, the “suppression of the proliferation of U-87 MG cells” value with U-87 MG cells [2] is “ineffectiveness”. Moreover, the “colony-forming ability in soft agar (anchorage-independent growth)” value in the data set on U-87 MG cells [3] is given as “efficiently inhibited”; with U-87 MG cells [3] (setting [11]) it was “dose-dependent response”. For the same molecule, the “effective concentration on colony-forming ability in soft agar” value with U-87 MG cells [3] was 0.1 µg/mL. In addition, the results for the “cell aggregates formed in spheroid culture” value with U-87 MG cells [4] and in the data set with U-87 MG cells [4] (setting [11]) were “efficiently inhibited” and “abolished”, respectively. In the data set with bFGF promoter, the “EGFP fluorescence (flow cytometry)” value is “diminish”. Moreover, in the data set with bFGF promoter, the “EGFP transcripts (real-time RT-PCR)” value is “diminish”. In addition, the results for the “LMW-IRES activity (LucR/LucF ratio)” value in the data set on LMW-IRES and in the data set on LMW-IRES (listed as Thalidomide) were “down regulated” and “alter the IRES activity in a dose-dependent manner”, respectively. Also, the entries for the “HMW-IRES activity (LucR/LucF ratio)” value with HMW-IRES and with HMW-IRES (listed as Thalidomide) were “down regulated” and “alter the IRES activity in a dose-dependent manner”, respectively. For the same molecule, the “quench of the absorbance at 230 nm” value with G-rich bFGF DNA fragment is listed as “more severe quench”. Further, the “bFGF RNA levels” value in data set [5] (0.1˜10 μg/ml, 3 hr) was “markedly reduced”. Moreover, the “inhibitory effect on bFGF expression (RNA)” value in data set [5] (12 hr treatment) is “disappeared”. In addition, the “decrease of the HMW bFGFs compared with LMW bFGFs” value in data set [6] was “more dramatic than that of LMW ones”. Moreover, the “concentrations used to suppress the G-rich hTERT promoter” value with G-rich hTERT promoter is 12.5 µg/mL and 25 µg/mL. In addition, the “concentration down-regulating transcripts levels for genes with GC-rich promoter” value in [7] is “over 12.5 μg/ml”. In addition, in data set [8], the “concentration inhibiting LPS induced TNF-α secretion” value was 0.3 µg/mL. Further, the serum concentration in data set [9] was 1.8 to 10 µg/mL. The “activity after incubation in culture media (stability)” value in [10] was “completely lost its activity”.
